Reference: patent publication US20220370416A1, “COMPOUNDS AND METHODS FOR TARGETED DEGRADATION OF KRAS” (Arvinas Operations, Inc., priority 2020, published 2022)
One block for each molecule: values may come before it.

What was measured:
HiBit-KRAS^G12C [1] = target: T1, HiBit-KRAS^G12C (Homo sapiens, UniProt P01116, G12C); assay: HiBit degradation assay in SW1573 HiBit-KRas^G12C cells; format: cell-based; parameters: expressed in transfected cells; host or cells: SW1573 (clone E6), modified pcDNA3.1 vector, TK promoter; conditions: 24 hours
T1 sequence (P01116 1-186 isoform P01116-2 G12C limits assumed): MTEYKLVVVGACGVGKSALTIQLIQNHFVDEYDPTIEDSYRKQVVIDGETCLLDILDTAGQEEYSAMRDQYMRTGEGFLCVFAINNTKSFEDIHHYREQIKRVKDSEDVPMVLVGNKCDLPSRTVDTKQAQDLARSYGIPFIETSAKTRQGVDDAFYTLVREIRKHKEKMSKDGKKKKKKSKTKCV
Summary of the method: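 SW1573 cells stably expressing N-terminally HiBit-tagged KRAS G12C, under the TK promoter, were treated 24 h at 37 °C with 10 μM to 20 nM compound in 0.1% or 0.5% DMSO. Residual HiBit luminescence normalised to DMSO and fitted with a 4-parameter model for DC50 and Dmax. Points with ≥50% viability loss (alamar blue) excluded.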

HiBit-KRAS^G12C [2] = target: T1, HiBit-KRAS^G12C; assay: HiBit degradation assay in MiaPaCa-2 HiBit-KRas^G12C cells; format: cell-based; conditions: 24 hours
Summary of the method: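 MiaPaCa-2 cells with CRISPR N-terminal HiBit knock-in on one endogenous KRAS^G12C allele, treated 24 hours at 37° C with compound titrated 10 μM to 20 nM (0.1% or 0.5% DMSO). Lytic HiBit luminescence normalized to DMSO, 4-parameter fit giving DC50 and Dmax; points cytotoxic to […] cells by alamar blue excluded.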

[3] = SW1573 HiBit-KRas^G12C, 0.1% DMSO, read-out: KRas^G12C-HIBit (SW1573; 0.1% DMSO) DC50*
[4] = MIA PaCa-2, read-out: KRas^G12C-HiBiT (MiaPaCa; 0.1% DMSO) DMax, MiaPaCa-2 HiBit-KRas^G12C cells, 0.1% DMSO, maximum degradation
[5] = read-out: KRas^G12C-HiBiT (MiaPaCa; 0.1% DMSO) IC50, MiaPaCa-2 HiBit-KRas^G12C cells, 0.1% DMSO
[6] = SW1573, read-out: KRas^G12C-HiBit (SW1573; 0.1% DMSO) Dmax**, SW1573 HiBit-KRas^G12C, 0.1% DMSO
[7] = SW1573, SW1573 HiBit-KRas^G12C, 0.1% DMSO, read-out: KRas^G12C-HiBit (SW1573; 0.1% DMSO) Dmax**
[8] = MIA PaCa-2, MiaPaCa-2 HiBit-KRas^G12C cells, 0.1% DMSO, maximum degradation, read-out: KRas^G12C-HiBiT (MiaPaCa; 0.1% DMSO) DMax

SMILES: C=CC(=O)N1CCN(c2nc(OCCN3CCC(OCCOc4cc([C@@H](C(=O)N5C[C@@H](O)C[C@H]5C(=O)N[C@@H](C)c5ccc(-c6scnc6C)cc5)C(C)C)on4)CC3)nc3c(F)c(-c4cc(O)cc5ccccc45)c(Cl)cc23)C[C@@H]1CC#N [Compound 5, (2S,4S)-1-[(2S)-2-{3-[2-({1-[2-({6-chloro-4-[(3S)-3-(cyanomethyl)-4-(prop-2-enoyl)piperazin-1-yl]-8-fluoro-7-(3-hydroxynaphthalen-1-yl)quinazolin-2-yl}oxy)ethyl]piperidin-4-yl}oxy)ethoxy]-1,2-oxazol-5-yl}-3-methylbutanoyl]-4-hydroxy-N-[(1S)-1-[4-(4-methyl-1,3-thiazol-5-yl)phenyl]ethyl]pyrrolidine-2-carboxamide]
- DC50 (HiBit-KRAS^G12C [1]; [3]): > 1 µM
- Dmax (HiBit-KRAS^G12C [2]; [4]): < 35%
- DC50 (HiBit-KRAS^G12C [2]; [5]): 0.1 to 1 µM

SMILES: C=CC(=O)N1CCN(c2nc(O[C@H](C)CN3CCN(CCCOC4CN(CC(=O)N[C@H](C(=O)N5C[C@H](O)C[C@H]5C(=O)N[C@@H](C)c5ccc(-c6scnc6C)cc5)C(C)(C)C)C4)CC3)nc3c(F)c(-c4cc(O)cc5ccccc45)c(Cl)cc23)CC1 [Compound 57, (2S,4R)-1-[(2S)-2-{2-[3-(3-{4-[(2R)-2-{[6-chloro-8-fluoro-7-(3-hydroxynaphthalen-1-yl)-4-[4-(prop-2-enoyl)piperazin-1-yl]quinazolin-2-yl]oxy}propyl]piperazin-1-yl}propoxy)azetidin-1-yl]acetamido}-3,3-dimethylbutanoyl]-4-hydroxy-N-[(1S)-1-[4-(4-methyl-1,3-thiazol-5-yl)phenyl]ethyl]pyrrolidine-2-carboxamide]
- Dmax (HiBit-KRAS^G12C [1]; [6]): < 35%
- DC50 (HiBit-KRAS^G12C [1]; [3]): 0.1 to 1 µM
- DC50 (HiBit-KRAS^G12C [2]; [5]): > 1 µM

SMILES: C=CC(=O)N1CCN(c2nc(OCCN3CCC4(CC3)CN(CC(=O)N[C@H](C(=O)N3C[C@H](O)C[C@H]3C(=O)N[C@@H](C)c3ccc(-c5scnc5C)cc3)C(C)(C)C)C4)nc3c(F)c(-c4cc(O)cc5ccccc45)c(Cl)cc23)C[C@@H]1CC#N [Compound 145, (2S,4R)-1-[(2S)-2-(2-{7-[2-({6-chloro-4-[(3S)-3-(cyanomethyl)-4-(prop-2-enoyl)piperazin-1-yl)-8-fluoro-7-(3-hydroxynaphthalen-1-yl)quinazolin-2-yl}oxy)ethyl]-2,7-diazaspiro[3.5]nonan-2-yl}acetamido)-3,3-dimethylbutanoyl]-4-hydroxy-N-[(1S)-1-[4-(4-methyl-1,3-thiazol-5-yl)phenyl]ethyl]pyrrolidine-2-carboxamide]
- Dmax (HiBit-KRAS^G12C [1]; SW1573, read-out: KRas^G12C-HiBiT (SW1573; 0.5% DMSO) Dmax**, SW1573 HiBit-KRas^G12C, 0.5% DMSO): > 70%
- DC50 (HiBit-KRAS^G12C [1]; read-out: KRas^G12C-HiBiT (SW1573; 0.5% DMSO) IC50***, SW1573 HiBit-KRas^G12C, 0.5% DMSO): 0.1 to 1 µM
- Dmax (HiBit-KRAS^G12C [2]; MIA PaCa-2, read-out: KRas^G12C-HiBiT (MiaPaCa; 0.5% DMSO) DMax, MiaPaCa-2 HiBit-KRas^G12C cells, 0.5% DMSO, maximum degradation): 35 to 70%
- DC50 (HiBit-KRAS^G12C [2]; read-out: KRas^G12C-HiBiT (MiaPaCa; 0.5% DMSO) IC50, MiaPaCa-2 HiBit-KRas^G12C cells, 0.5% DMSO): 0.1 to 1 µM

SMILES: C=CC(=O)N1CCN(c2nc(OCCN3CCC(OCCOCC(=O)N[C@H](C(=O)N4C[C@@H](O)C[C@H]4C(=O)N[C@@H](C)c4ccc(-c5scnc5C)cc4)C(C)(C)C)CC3)nc3c(F)c(-c4cc(O)cc5ccccc45)c(Cl)cc23)C[C@@H]1CC#N [Compound 7, (2S,4S)-1-[(2S)-2-{2-[2-({1-[2-({6-chloro-4-[(3S)-3-(cyanomethyl)-4-(prop-2-enoyl)piperazin-1-yl]-8-fluoro-7-(3-hydroxynaphthalen-1-yl)quinazolin-2-yl}oxy)ethyl]piperidin-4-yl}oxy)ethoxy]acetamido}-3,3-dimethylbutanoyl]-4-hydroxy-N-[(1S)-1-[4-(4-methyl-1,3-thiazol-5-yl)phenyl]ethyl]pyrrolidine-2-carboxamide]
- DC50 (HiBit-KRAS^G12C [1]; [3]): > 1 µM
- Dmax (HiBit-KRAS^G12C [2]; [4]): 35 to 70%

- Dmax (HiBit-KRAS^G12C [1]; [7]): 35 to 70%
- DC50 (HiBit-KRAS^G12C [1]; [3]): > 1 µM
- Dmax (HiBit-KRAS^G12C [2]; [8]): < 35%
- DC50 (HiBit-KRAS^G12C [2]; [5]): 0.1 to 1 µM
SMILES: C=CC(=O)N1CCN(c2nc(O[C@H](C)CN3CC(OCC(=O)N[C@H](C(=O)N4C[C@H](O)C[C@H]4C(=O)N[C@@H](C)c4ccc(-c5scnc5C)cc4)C(C)(C)C)C3)nc3c(F)c(-c4cc(O)cc5ccccc45)c(Cl)cc23)CC1 [Compound 41, (2S,4R)-1-[(2S)-2-[2-({1-[(2R)-2-{[6-chloro-8-fluoro-7-(3-hydroxynaphthalen-1-yl)-4-[4-(prop-2-enoyl)piperazin-1-yl]quinazolin-2-yl]oxy}propyl]azetidin-3-yl}oxy)acetamido]-3,3-dimethylbutanoyl]-4-hydroxy-N-[(1S)-1-[4-(4-methyl-1,3-thiazol-5-yl)phenyl]ethyl]pyrrolidine-2-carboxamide]

SMILES: C=CC(=O)N1CCN(c2nc(OCCN3CCC(OCCOc4cc([C@H](C(=O)N5C[C@H](O)C[C@H]5C(=O)N[C@@H](C)c5ccc(-c6scnc6C)cc5)C(C)C)on4)CC3)nc3c(F)c(-c4cc(O)cc5ccccc45)c(Cl)cc23)C[C@@H]1CC#N (atropisomer, axis not shown) [Compound 4, (2S,4R)-1-((R)-2-(3-(2-((1-(2-(((R)-4-((S)-4-acryloyl-3-(cyanomethyl)piperazin-1-yl)-6-chloro-8-fluoro-7-(3-hydroxynaphthalen-1-yl)quinazolin-2-yl)oxy)ethyl)piperidin-4-yl)oxy)ethoxy)isoxazol-5-yl)-3-methylbutanoyl)-4-hydroxy-N-((S)-1-(4-(4-methylthiazol-5-yl)phenyl)ethyl)pyrrolidine-2-carboxamide]
- KRas^G12C-HiBit (SW1573; 0.1% DMSO) Dmax** (HiBit-KRAS^G12C [1]; SW1573 HiBit-KRas^G12C, 0.1% DMSO): B (35 < B < 70)
- DC50 (HiBit-KRAS^G12C [1]; [3]): 0.1 to 1 µM
- KRas^G12C-HiBiT (MiaPaCa; 0.1% DMSO) DMax (HiBit-KRAS^G12C [2]; MiaPaCa-2 HiBit-KRas^G12C cells, 0.1% DMSO, maximum degradation): C (C ≤ 35)
- KRas^G12C-HiBiT (MiaPaCa; 0.5% DMSO) DMax (HiBit-KRAS^G12C [2]; MiaPaCa-2 HiBit-KRas^G12C cells, 0.5% DMSO, maximum degradation): B (35 < B < 70)

- Dmax (HiBit-KRAS^G12C [1]; [7]): 35 to 70%
- Dmax (HiBit-KRAS^G12C [1]; SW1573, SW1573 HiBit-KRas^G12C, 0.5% DMSO, read-out: KRas^G12C-HiBiT (SW1573; 0.5% DMSO) Dmax**): 35 to 70%
- DC50 (HiBit-KRAS^G12C [1]; [3]): 0.1 to 1 µM
- Dmax (HiBit-KRAS^G12C [2]; [8]): < 35%
- Dmax (HiBit-KRAS^G12C [2]; MIA PaCa-2, MiaPaCa-2 HiBit-KRas^G12C cells, 0.5% DMSO, maximum degradation, read-out: KRas^G12C-HiBiT (MiaPaCa; 0.5% DMSO) DMax): 35 to 70%
SMILES: C=CC(=O)N1CCN(c2nc(O[C@H](C)CN3CCC(CCOCC(=O)N[C@H](C(=O)N4C[C@H](O)C[C@H]4C(=O)N[C@@H](C)c4ccc(-c5scnc5C)cc4)C(C)(C)C)CC3)nc3c(F)c(-c4cc(O)cc5ccccc45)c(Cl)cc23)CC1 [Compound 68, (2S,4R)-1-[(2S)-2-[2-(2-{1-[(2R)-2-{[6-chloro-8-fluoro-7-(3-hydroxynaphthalen-1-yl)-4-[4-(prop-2-enoyl)piperazin-1-yl]quinazolin-2-yl]oxy}propyl]piperidin-4-yl}ethoxy)acetamido]-3,3-dimethylbutanoyl]-4-hydroxy-N-[(1S)-1-[4-(4-methyl-1,3-thiazol-5-yl)phenyl]ethyl]pyrrolidine-2-carboxamide]

SMILES: C=CC(=O)N1CCN(c2nc(O[C@H](C)CN3CC(N4CCN(CC(=O)N[C@H](C(=O)N5C[C@H](O)C[C@H]5C(=O)N[C@@H](C)c5ccc(-c6scnc6C)cc5)C(C)(C)C)CC4)C3)nc3c(F)c(-c4cc(O)cc5ccccc45)c(Cl)cc23)CC1 [Compound 62, (2S,4R)-1-[(2S)-2-[2-(4-{1-[(2R)-2-{[6-chloro-8-fluoro-7-(3-hydroxynaphthalen-1-yl)-4-[4-(prop-2-enoyl)piperazin-1-yl]quinazolin-2-yl]oxy}propyl]azetidin-3-yl}piperazin-1-yl)acetamido]-3,3-dimethylbutanoyl]-4-hydroxy-N-[(1S)-1-[4-(4-methyl-1,3-thiazol-5-yl)phenyl]ethyl]pyrrolidine-2-carboxamide]
- Dmax (HiBit-KRAS^G12C [1]; [6]): 35 to 70%
- DC50 (HiBit-KRAS^G12C [1]; [3]): 0.1 to 1 µM
- Dmax (HiBit-KRAS^G12C [2]; [4]): < 35%
